Results on five compounds are retold here after patent US20240252457A1, “Treatment or Prevention of Ischaemia Reperfusion Injury” (Cambridge Enterprise Limited, priority 2021, published 2024).

For series [1] the following is noted: cited from earlier work.
A further series relates to C2C12 cells. The series can be described thus: Malonate / 3A3OPA uptake in C2C12 cells at different pH (LC-MS/MS). The note with it: for intracellular uptake, effect of lowered pH: 15 min, pH 6 vs 7.4 (and 8). It is filed as cell-based, mouse. Here is the method: C2C12 cells were incubated with malonate at pH 8, 7.4 or 6 and the levels within cells measured by LC-MS/MS (mean±/−S.E.M., n=4).
C2C12 cells were treated with either malonate or 3-amino-3-oxypropanoic acid at pH 7.4 or 6 and their intracellular levels measured by LC-MS/MS (mean±/−S.E.M., n=6).

A further series has as its target T1, MCT1 (Mus musculus, UniProt P53986).
T1 construct: from tissue; host or cells: isolated Langendorff-perfused murine heart
T1 sequence (P53986 1-493): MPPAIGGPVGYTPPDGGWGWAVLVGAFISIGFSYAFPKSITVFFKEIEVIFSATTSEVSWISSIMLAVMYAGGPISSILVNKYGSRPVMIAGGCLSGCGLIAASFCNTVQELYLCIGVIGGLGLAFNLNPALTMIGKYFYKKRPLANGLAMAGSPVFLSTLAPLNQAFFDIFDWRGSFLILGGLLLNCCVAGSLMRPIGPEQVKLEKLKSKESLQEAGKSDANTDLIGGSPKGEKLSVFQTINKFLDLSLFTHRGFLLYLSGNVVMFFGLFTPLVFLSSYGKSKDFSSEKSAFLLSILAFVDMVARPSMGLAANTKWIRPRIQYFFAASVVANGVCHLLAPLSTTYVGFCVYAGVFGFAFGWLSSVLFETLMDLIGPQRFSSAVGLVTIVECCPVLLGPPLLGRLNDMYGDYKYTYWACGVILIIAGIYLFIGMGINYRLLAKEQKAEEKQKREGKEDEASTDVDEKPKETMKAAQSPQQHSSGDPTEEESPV
T1 sequence (P18572 140-389 partner limits assumed): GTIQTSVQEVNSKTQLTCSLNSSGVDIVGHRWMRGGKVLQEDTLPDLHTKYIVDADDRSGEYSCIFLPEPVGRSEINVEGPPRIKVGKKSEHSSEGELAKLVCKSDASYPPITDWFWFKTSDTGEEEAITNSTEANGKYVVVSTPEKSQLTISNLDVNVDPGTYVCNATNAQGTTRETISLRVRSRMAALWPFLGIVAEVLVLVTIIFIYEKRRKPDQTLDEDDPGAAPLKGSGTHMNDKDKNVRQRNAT
The series is described as follows: Malonate levels in Langendorff hearts perfused at pH 6 with DSM ± lactate or MCT1 inhibitor. The note with it: pH 6, 5 min, 5 mM DSM; lactate 50 mM, AR-C141990 10 μM. On the set-up: species or system murine. The source says: Malonate uptake into the Langendorff perfused heart was blocked by the MCT1 inhibitor AR-C141990, in the perfusion medium, and by excess lactate.

For series [2] the following is noted: cited from earlier work. The source holds these as a separate data set.
A further series relates to MCAO model. The series can be described thus: Transient middle cerebral artery occlusion (MCAO) stroke model. The class given is in vivo, mice. The note with it: i.v. for 20 min starting just prior to reperfusion; 45 min ischaemia, 2 h reperfusion. The source says: Male C57B16J mice, 6-8 weeks old, were anesthetized with 3% isoflurane and anaesthesia was maintained on 1.5-2% isoflurane. A Doppler flowmetry probe (Perimed, Sweden) was attached to the skull to continuously monitor the cerebral blood flow. Left common carotid artery (CCA) and left external carotid artery were exposed and permanently ligated. Left internal common carotid artery was clamped temporarily. Next, an incision was made on CCA and a filament with a silicon tip (0.22 mm in diameter, 2-3 mm in length, Doccol, USA) was inserted and guided forward into internal carotid artery until it reached middle cerebral artery (MCA). The occlusion of MCA was confirmed by seeing at least 70% drop in cerebral blood flow. […]
At the end of reperfusion, mice were sacrificed by cervical dislocation; brain was collected and sliced at 2 mm thicknesses and stained with 2% triphenyltetrazolium chloride in saline at 37 C for 10-15 min. […] The healthy tissue area (red-stained) in both hemispheres was measured using ImageJ. The infarct volume % was calculated by first calculating the volume of healthy tissue in each hemisphere (Σ area of each slice×thickness of slice), then by the formula: ((volume of healthy tissue in uninjured hemisphere−volume of healthy tissue in injured hemisphere)÷volume of healthy tissue in uninjured hemisphere)×100.

A short description of the next series: pKa and ionisation state. The class given is physicochemical. The note with it: pH 6.4. The source says:
In 3A3OPA, one carboxylic acid has been replaced with a neutral amido group leaving a single carboxylic acid of pKa˜4.75. Thus, at pH 7.4 3A3OPA resembles the monocarboxylate form of malonate.

A short description of series [3]: Malonate uptake in vivo, tissue levels after tail vein bolus. On the set-up: species or system mouse. The note with it: 160 mg/kg tail vein bolus, 5 min. Here is the method:
For tissue analysis, tissues were weighed and extracted in 25 μl/mg extraction buffer containing internal standard and homogenised in a Precellys 24 homogeniser. Homogenates were centrifuged to remove insoluble debris. Extracts were analysed by LC-MS/MS and the levels of malonate assessed by interpolation of a malonate standard curve.

The test system of the next series is murine LAD MI model. The series can be described thus: Infarct size in murine LAD MI model (TTC staining). It is filed as in vivo. Here is the method:
Mice were subjected to left anterior descending coronary artery ligation heart attack model (30 min ischaemia, 2 hr reperfusion) and malonate infused either before the onset of ischaemia or during initial reperfusion. Infarct size was determined by staining the heart with triphenyltetrazolium chloride (mean±/−S.E.M., n=5-8).
Thus, malonate was confirmed to be cardioprotective when administered at the point of reperfusion after ischaemia.
Cyclosporin A is a known inhibitor of the mitochondrial permeability transition pore (PTP).

Series [4] relates to murine Langendorff perfused heart. The series is described as follows: Malonate uptake in Langendorff-perfused hearts (pH- and ischaemia-dependence, LC-MS/MS). Here is the method:
Malonate (5 mM) was infused into Langendorff perfused mouse hearts at either pH 7.4 or 6. The heart flushed to remove vessel malonate and malonate levels measured by LC-MS/MS (mean±/−S.E.M., n=4).
Langendorff mouse hearts were reperfused with malonate (5 mM) after either 0, 5, 10, or 20 min ischaemia). The heart flushed to remove vessel malonate and malonate levels measured by LC-MS/MS (mean±/−S.E.M., n=4-5).

Series [5] has as its system C2C12 mouse myoblast cells. The series is described as follows: Malonate uptake in vitro in C2C12 cells (dose and time course). It is filed as cell-based. The note with it: for malonate uptake into cells (words): 0.25, 1 or 5 mM, 0 to 240 min; for intracellular malonate concentration: 5 min, cell volume 260 mg protein/ml. Here is the method:
We first explored whether malonate could be taken up by cells in culture. C2C12 mouse myoblast cells were plated at 300,000 cells/well and adhered overnight. […] Cells were extracted for mass spectrometry with 500 μl extraction buffer (50% methanol, 30% acetonitrile and 20% water) with 1 nmol ^13C-malonate internal standard centrifuged to remove insoluble debris.

For a further series, the system named is Langendorff heart. The series can be described thus: Lactate levels in the Langendorff heart after 20 min ischemia and 1 min reperfusion. The note with it: 5 mM DSM, 20 min ischemia. The source says: Compared to reperfusion alone, lactate levels decreased in the malonate-treated hearts.
Another series concerns H9c2 myoblasts. The series is described as follows: Intracellular malonate and succinate in H9c2 myoblasts at different pH (LC-MS/MS). The note with it: H9c2, DSM 1 or 5 mM, 15 min. The class given is cell-based.

“Also recorded” adds a separate entry of the source.

As to `NC(=O)CC(=O)O` [3A3OPA, 3-amino-3-oxypropanoic acid], in series [1], the “pKa of single carboxylic acid” value was about 4.75. Also, the “uptake into cells at pH 7.4 compared with malonate” value in the series on C2C12 cells (5 mM, pH 7.4) was “more 3A3OPA being taken up into cells at pH 7.4 than malonate”. Moreover, the “intracellular uptake, effect of lowered pH” value with C2C12 cells is given as “changed negligibly”.

`CC(O)C(=O)O` (stereo not shown) [lactate]: the “effect on malonate uptake into the Langendorff perfused heart” value on MCT1 is “blocked”.

Turning to `COC(=O)CC(=O)OC` [DMM, dimethyl malonate], the “protection against IR injury” value in [2] (administered prior to and throughout ischaemia (WO 2016/001686)) was “protective”. For the same compound, the “necrotic brain infarct volume” value with MCAO model was “not to be protective; also recorded: no significant difference”.

Consider `O=C([O-])CC(=O)[O-].[Na+].[Na+]` [DSM, disodium malonate], for which the “fraction in monocarboxylate form” value in the series “pKa and ionisation state” was “approximately 16%”. Moreover, the “protection against myocardial IR injury” value in series [2] (small animal ex vivo and large animal models) is “protective”. Further, in [3], the “tissue levels of malonate, brain” value is recorded as “uptake in the brain”; the “tissue levels of malonate, heart” value is “significant amounts”; the “tissue levels of malonate, kidney” value is on record as “particularly high”; the “tissue levels of malonate, liver” value is listed as “significant amounts”. For the same compound, in the series on murine LAD MI model (160 mg/kg infusion at reperfusion), the “infarct size (cardioprotection)” value is “cardioprotective”. Further, the “infarct size, cardioprotection in combination with cyclosporin A” value in the series with murine LAD MI model (DSM 160 mg/kg with cyclosporin A 10 mg/kg at reperfusion) is listed as “additive to cyclosporin A alone”. Besides, the “malonate uptake in heart after ischaemia” value in [4] (0, 5, 10 or 20 min ischaemia, reperfused with 5 mM DSM pH 7.4) was “ischemic time-dependent uptake”. For the same compound, in series [4] (5 mM DSM, pH 6 vs pH 7.4), the “malonate uptake in heart, infused at low pH vs neutral pH” value is “greatly enhanced”. Besides, the “necrotic brain infarct volume” value in the series with MCAO model was “decreased”. In [5] (5 mM DSM, after 5 min), this compound gave an intracellular malonate levels of about 2 nmol/mg protein. The “malonate uptake into cells (words)” value in [5] (listed as Malonate) was “both dose and time-dependent”. For the same compound, the “malonate uptake into cells (words)” value in series [5] (listed as disodium malonate) was “rapid malonate uptake”. Also, the intracellular malonate concentration result in [5] (250 μM malonate) is recorded as “about 50 μM”. The intracellular malonate concentration in series [5] (5 mM malonate) was about 500 µM. In series [5] (incubated with 250 μM disodium malonate), the intracellular malonate levels was 0.2-0.4 nmol/mg protein. Also, the “intracellular uptake, effect of lowered pH” value with C2C12 cells is recorded as “greatly enhanced”. In addition, the “lactate levels compared to reperfusion alone” value in the series with Langendorff heart is on record as “decreased”. In the series on H9c2 myoblasts, the “levels of malonate in the cell at pH 6 vs pH 7.4 or 8” value is listed as “significantly higher” and the “succinate levels (malonate-dependent SDH inhibition) at low pH” value was “greater succinate accumulation”.

Turning to `CC(C)Cn1c(=O)n(C)c(=O)c2c(C(=O)N3CC[C@@H](O)C3)c(Cc3ccnc4ccccc34)sc21` [AR-C141990], on MCT1, the “effect on malonate uptake into the Langendorff perfused heart” value is “blocked”.
